Measured values from article PMC6155721, “Hair Growth Promoting and Anticancer Effects of p21-activated kinase 1 (PAK1) Inhibitors Isolated from Different Parts of Alpinia zerumbet” (Molecules : A Journal of Synthetic Chemistry and Natural …, 2017).
Where “and” joins values, the source holds several entries; their conditions need not be identical. Identical values can stand only once. Like-named read-outs stand apart in the source and are kept apart here.

Columns and labels:
[1] = test system: A549 lung cancer cells; experiment: Anticancer activity by MTT assay; assay type: cell-based; conditions: mean ± SE of six replications, read-out: IC50 (μM), anti-cancer activity against the A549 cell line
Protocol: The assay was performed as previously described. Lung cancer cells (A549) were seeded into a 96-well plate at a density of 1 × 10^4 cells/well, and cultured for 24 h before the compounds were added. The cells were incubated in a humidified atmosphere of 5% CO2 at 37 °C for 72 h. After treatment, 20 μL MTT solution (0.5 mg/mL) was added to each well, and the plates were incubated for 3 h. The medium was removed, and the formazan was dissolved in 200 μL of DMSO. After shaking the plate for 10 min, cell viability was assessed by measuring the absorbance at 490 nm using a microplate reader (Corona, Hitachinaka-ku, Ibaraki, Japan). DMSO was used as a blank. The corrected absorbance of sample was divided by the corrected absorbance of the control, and then multiplied by 100% to give the percentage cell viability.

[2] = target: human PAK1 (Homo sapiens, UniProt Q13153); experiment: In vitro PAK1 inhibition, ADP-Glo kinase assay; assay type: biochemical; conditions: mean ± SE of six replications, read-out: IC50 (μM), in vitro PAK1 inhibitory activity
Protocol: PAK1 kinase activity was measured using the ADP-Glo™ kinase assay kit (Promega, Madison, WI, USA) according to manufacturer’s instructions. Briefly, human PAK1 (25 ng/reaction) was incubated with test compounds (5 μL) for 10 min. […] The reaction was terminated by adding 25 μL ADP-Glo™ reagent, followed by an incubation time of 40 min. The kinase detection reagent (50 μL) was added to the reaction mixture, and after 30 min of incubation, the luminescence was recorded by MTP-880Lab microplate reader (Corona, Ibaraki, Japan) with an integration time of 0.5 s per well. The percentage inhibition was calculated relative to the control kinase activity without any inhibitor.

[3] = test system: human follicle dermal papilla cells (HFDPC); experiment: Human follicle dermal papilla cell (HFDPC) proliferation, MTT assay; assay type: cell-based; conditions: for proliferation of HFDPC / Cell viability (%) / viability at 10 µM / viability at 50 µM / viability at 100 µM: four days incubation; for viability at 10 µM / viability at 50 µM / viability at 100 µM: Homo sapiens, 96 h
Protocol: Human follicle dermal papilla cell (HFDPC) (TOYOBO, Tokyo, Japan) proliferation was assayed as described by Nguyen et al.. Cells were cultured in growth medium containing 50 mL papilla cell growth medium (PCGM), 0.5 mL FCS, 0.5 mL BPE, 0.25 mL Cyp, and 0.25 mL ITT (51.5 mL total volume). Cell viability was evaluated using the thiazolyl blue tetrazolium bromide (MTT) assay. Cells were collected and diluted in medium containing D-MEM and 10% FBS at a cell density of 1 × 10^4 cells/mL. Then, cell suspension (200 μL) was transferred into a collagen-coated 96-well plate at a density of 2000 cells/well. After incubation for three days, 200 μL of the isolated compounds in DMEM was added. After four days of incubation, 100 μL of MTT solution in D-MEM (0.4 mg/mL) was added, and the mixture was incubated for 2 h. The untransformed MTT was removed, and 100 μL of 2-propanol was added to each well to dissolve the formazan crystals. The absorbance was read at 570 nm and 650 nm using a microplate reader. The cell viability was calculated from the readings, and represented as a percentage of the control value (cells treated with D-MEM only).

[4] = 100 μM, percentage of control value
[5] = 10 μM, percentage of control value (cells treated with D-MEM only)

human PAK1, sequence (Q13153 whole entry): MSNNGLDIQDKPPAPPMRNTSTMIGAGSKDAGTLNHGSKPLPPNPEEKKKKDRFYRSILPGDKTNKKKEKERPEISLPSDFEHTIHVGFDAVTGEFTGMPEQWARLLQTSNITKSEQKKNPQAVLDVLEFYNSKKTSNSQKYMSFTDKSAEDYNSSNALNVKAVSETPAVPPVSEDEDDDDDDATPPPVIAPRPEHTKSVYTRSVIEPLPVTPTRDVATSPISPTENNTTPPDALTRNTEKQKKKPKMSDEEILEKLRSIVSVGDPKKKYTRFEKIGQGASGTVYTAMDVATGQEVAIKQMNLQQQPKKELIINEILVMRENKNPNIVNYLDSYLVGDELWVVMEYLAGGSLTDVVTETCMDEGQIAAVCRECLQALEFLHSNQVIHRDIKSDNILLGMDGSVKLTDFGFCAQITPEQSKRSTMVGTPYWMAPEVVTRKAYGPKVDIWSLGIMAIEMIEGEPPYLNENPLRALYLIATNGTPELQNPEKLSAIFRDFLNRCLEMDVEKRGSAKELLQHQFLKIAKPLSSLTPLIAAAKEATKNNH

| SMILES | IC50 ([1]; 72 h) [µM] | IC50 ([1]; Homo sapiens, A549, 72 h) [µM] | IC50 [2] | proliferation of HFDPC / Cell viability (%) [3, 4] [%] | viability at 10 µM [3, 5] [%] | viability at 50 µM ([3]; percentage of control value) [%] | viability at 100 µM [3, 4] [%] | proliferation of HFDPC / Cell viability (%) [3, 5] | IC50 ([1]; Homo sapiens, 72 h) [µM] | effect on hair cell proliferation ([3]; at around 50 μM or higher) |
| --- | --- | --- | --- | --- | --- | --- | --- | --- | --- | --- |
| COc1cc(/C=C/C(=O)CC(=O)/C=C/c2ccc(O)c(OC)c2)ccc1O [Curcumin, reference compound] | 30.3 ± 2.9 | 30 |  |  |  |  |  |  |  |  |
| O=C(O)C1OC(Oc2c(-c3ccc(O)cc3)oc3cc(O)cc(O)c3c2=O)C(O)C(O)C1O [KOG, kaempferol-3-O-β-D-glucuronide] |  | 81.4 ± 1.9 | 39 µM and 39.3 µM | ~180 | 118 | 158 | 181 |  |  |  |
| C=C1CCC2C(C)(C)CCCC2(C)C1C/C=C(/C=O)CC=O (centres unmarked) [Labdadiene, 8(17),12-Labdadiene-15,16-dial] | 67.1 ± 6 | 67 | 52 µM and 52.1 µM | ~226 | 133 | 197 | 227 | about 132% |  |  |
| CO/C=C/C=C/C=C/C1C=CC(/C=C/C=C/C=C/OC)O1 (centres unmarked) [MTD] |  | 98.9 ± 9.3 | 59 µM and 58.6 µM |  | 165 | 190 | 113 |  |  |  |
| Nc1cc(N2CCCCC2)nc(N)[n+]1[O-] [Minoxidil, reference compound] |  |  |  |  | 116 |  |  | 119% |  |  |
| C=C1CC2CC(C)(C)C(C)(C)CN2CC1CCCCC/C=C/C (centres unmarked) [TMOQ, (E)-2,2,3,3-tetramethyl-8-methylene-7-(oct-6-en-1-yl)octahydro-1H-quinolizine] |  |  | 49 µM and ~50 µM and 49.3 µM |  | 139 | 104 | 68.5 |  | 90.8 ± 1.6 | did not significantly affect the hair cell proliferation |
